From publication PMC5071857, “A unique peptide deformylase platform to rationally design and challenge novel active compounds” (Scientific Reports, 2016)
Like-named read-outs stand apart in the source and are kept apart here.

Experiments:
SaPDF [1] = target: T1, SaPDF (Streptococcus agalactiae serotype III, UniProt Q8E378, S2A); test: biochemical; settings: for Ki: SaPDF KI, no pre-incubation, assay initiated by addition of enzyme, 40 nM SaPDF, 37 °C; for SaPDF KI/KI*app: enhancement potency (slow tight-binding)
T1 construct: the recombinant protein contains all residues of the 204 amino acids mature protein; made in house; host or cells: E. coli Rosetta 2(DE3)pLysS
T1 sequence (Q8E378 whole entry S2A): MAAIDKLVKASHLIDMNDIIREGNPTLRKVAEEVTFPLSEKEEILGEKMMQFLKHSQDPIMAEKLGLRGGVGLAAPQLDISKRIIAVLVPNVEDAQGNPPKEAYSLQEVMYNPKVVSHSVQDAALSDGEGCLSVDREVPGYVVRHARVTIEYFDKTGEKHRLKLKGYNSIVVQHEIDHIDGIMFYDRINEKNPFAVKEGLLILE
Procedure: (§1) Enzymatic activity was measured by a spectrophotometric assay where peptide deformylase activity is coupled to that of formate dehydrogenase. The formate released by the deformylation reaction is used by FDH to convert NAD in NADH, the production of which being measured over time at 340 nm and controlled temperature (37 °C). The 200 μL reaction mixture contained 50 mM HEPES-NaOH pH7.5, 12 mM NAD^+, 4.5 U/mL FDH, 1 mM NiCl2 and PDF enzyme (either 40 nM SaPDF or 10 nM EcPDF or 100 nM AtPDF1B) previously diluted in presence of 0.1 mg/mL BSA. The reaction was started by addition of 1–6 mM Fo-Met-Ala-Ser. Kinetics parameters (kcat, Km) were derived from iterative non-linear least square fits using the Michaelis-menten equation based on the experimental data (Sigma-Plot, Kinetics module).
(§2) 1/KI*app is the slope of the v0/vi curve in function of compound concentration, where v0 and vi are the initial reaction rates in absence and presence of compound, respectively.
(§3) Determination of KI values was performed with a slightly modified protocol: reaction was started by addition of enzyme instead of Fo-Met-Ala-Ser, the latter being directly added to the mixture containing increasing concentrations of each compound. No pre-incubation of enzyme in presence of compound was done. 1/KI is the slope of the v0/vi curve in function of compound concentration, where v0 and vi are the initial reaction rates in absence and presence of compound respectively.

EcPDF = target: T2, EcPDF (Escherichia coli, UniProt P0A6K3); test: PDF inhibition, formate dehydrogenase-coupled spectrophotometric assay (EcPDF); assay type: biochemical; settings: for Ki: 10 nM EcPDF; for EcPDF KI/KI*app: enhancement potency (slow tight-binding)
T2 construct: made in house
T2 sequence (P0A6K3 whole entry): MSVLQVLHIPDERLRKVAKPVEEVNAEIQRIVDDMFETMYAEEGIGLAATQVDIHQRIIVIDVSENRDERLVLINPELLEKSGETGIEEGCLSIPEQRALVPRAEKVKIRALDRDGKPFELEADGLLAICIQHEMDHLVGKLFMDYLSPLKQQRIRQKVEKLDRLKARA
Procedure: as §1, with “The” for “Enzymatic activity was measured by a spectrophotometric assay where peptide deformylase activity is coupled to that of formate dehydrogenase. The”
as §2, §3

AtPDF1B [2] = target: T3, AtPDF1B (Arabidopsis thaliana, UniProt Q9FUZ2); test: PDF inhibition, formate dehydrogenase-coupled spectrophotometric assay (AtPDF1B); assay type: biochemical; settings: for Ki: PDFI pre-incubated with enzyme 10 min at 37 °C, started by 2 mM Fo-Met-Ala-Ser, read-out: AtPDF1B KI*app; for Ki / IC50: 100 nM AtPDF1B; for AtPDF1B KI/KI*app: enhancement potency (slow tight-binding); for IC50: 2 mM Fo-Met-Ala-Ser, 10 min pre-incubation at 37 °C
T3 construct: made in house
T3 sequence (Q9FUZ2 83-273): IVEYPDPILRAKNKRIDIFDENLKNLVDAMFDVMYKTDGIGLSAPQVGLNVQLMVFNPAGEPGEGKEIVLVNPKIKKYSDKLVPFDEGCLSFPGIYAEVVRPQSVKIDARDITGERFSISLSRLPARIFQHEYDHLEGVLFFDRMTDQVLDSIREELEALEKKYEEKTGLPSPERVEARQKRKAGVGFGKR
Procedure: as §1, §2, §3

E. coli AG100 = test: MIC by microdilution, E. coli AG100; assay type: cell-based; settings: 18 h at 37 °C, average of three assays; for MIC: Escherichia coli, AG100, without PMBN; for MIC AG100: with PMBN at 1/5 of its MIC
Description: (§4) Two E. coli strains, one B. subtilis strain, one S. aureus strain, one E. faecalis strain, one S. agalactiae strain and three Enterobacter aerogenes strains previously described were used. Briefly, AG100 was an E. coli wild type strain and AG100A its acrAB^- derivative. EA289 was a Kan^s derivative of an E. aerogenes multi-drug resistant (MDR) clinical isolate overexpressing AcrAB-TolC efflux pumps, and EA294 and EA298 its acrAB^- and tolC^- derivatives respectively. Strains were routinely grown at 37 °C on Luria-Bertani (LB) agar or in Mueller-Hinton II broth (MH), supplemented with kanamycine (50 μg.mL^−1) for AG100A, EA294 and EA298.
(§5) MIC values of antibiotics were determined by the microdilution method in liquid MH media in microplates in the absence or presence of chemosensitizers/modulators (e.g. PMBN, PAβN), as previously described. Permeabilization, blocking of efflux pumps, and isolates with different levels of porin or efflux expression were used to assess the involvement of the membrane barrier in antibiotic activity.
(§6) Susceptibilities were determined in 96-wells microplates with an inoculum of 2 × 10^5 cfu in 200 μL of MH broth containing two-fold serial dilutions of each antibiotics or compounds. Molecules were tested alone or in combination with other molecules in equimolar ratio. MICs were realized in the absence and in the presence of a membrane permeabilizer, the polymyxine B nonapeptide (PMBN) used at 51.2 mg/L (1/5 or 1/10 of its direct MIC previously determined). Actinonin and ciprofloxacin were used as internal antibiotic reference. […] Each test was systematically performed in triplicate. The average of three independent assays is presented in μg/mL in the respective tables.

[3] = tested on: E. coli AG100A (AcrAB- derivative); test: MIC by microdilution, E. coli AG100A; assay type: cell-based; settings: for MIC: Escherichia coli, 18 h, read-out: MIC AG100A; for MIC AG100A: with PMBN at 1/5 of its MIC, 18 h at 37 °C, average of three assays
Description: as §4, §5, §6

S. aureus SA113 = test: MIC, S. aureus SA113; assay type: cell-based; settings: Staphylococcus aureus
Description: as §4, §5, §6

E. faecalis EFA 103.214 = test: MIC, E. faecalis EFA 103.214; assay type: cell-based; settings: Enterococcus faecalis, EFA103.214, read-out: MIC E. faecalis EFA 103.214
Description: as §4, §5, §6

SaPDF [4] = target: T1, SaPDF; test: biochemical; settings: SaPDF KI*app, PDFI pre-incubated with enzyme 10 min at 37 °C, started by 2 mM Fo-Met-Ala-Ser; 40 nM SaPDF
AtPDF1B [5] = target: T3, AtPDF1B; test: PDF inhibition, formate dehydrogenase-coupled spectrophotometric assay (AtPDF1B); assay type: biochemical; settings: no pre-incubation, assay initiated by addition of enzyme; 100 nM AtPDF1B; 37 °C
[6] = tested on: E. aerogenes Ea289, MDR strain; test: MIC by microdilution, E. aerogenes Ea289; assay type: cell-based, Enterobacter aerogenes
Description: as §4, §5, §6

[7] = tested on: E. aerogenes Ea294, Ea289 derivative AcrAB-; test: MIC by microdilution, E. aerogenes Ea294; assay type: cell-based, Enterobacter aerogenes
Description: as §4, §5, §6

[8] = tested on: E. aerogenes Ea298, Ea289 derivative tolC-; test: MIC by microdilution, E. aerogenes Ea298; assay type: cell-based, Enterobacter aerogenes
Description: as §4, §5, §6

[9] = EcPDF KI*app, PDFI pre-incubated with enzyme 10 min at 37 °C, started by 2 mM Fo-Met-Ala-Ser
[10] = EcPDF KI, no pre-incubation, assay initiated by addition of enzyme, 37 °C
[11] = +PMBN at 1/5 of its MIC, average of three assays

Row | SMILES | IC50 (SaPDF [1]) [nM] | Ki (SaPDF [1]) [nM] | SaPDF KI/KI*app (SaPDF [1]) | IC50 (EcPDF) [nM] | Ki (EcPDF; [9]) [nM] | Ki (EcPDF; [10]) [nM] | EcPDF KI/KI*app (EcPDF) | Ki (AtPDF1B [2]) [nM] | AtPDF1B KI/KI*app (AtPDF1B [2]) | MIC (E. coli AG100) [µg/mL] | MIC AG100 (E. coli AG100) [µg/mL] | MIC [3] [µg/mL] | MIC AG100A [3] [µg/mL] | MIC (S. aureus SA113) [µg/mL] | MIC (E. faecalis EFA 103.214) [µg/mL] | Ki (SaPDF [4]) [nM] | Ki (AtPDF1B [5]) [nM] | IC50 (AtPDF1B [2]) [nM] | further results
1 | CCCCC(CC(=O)NO)c1nc(Cc2ccc(C(F)(F)F)cc2)no1 (stereo not drawn) [AT008] | 25 ± 2 | 75 ± 4 | 1 | 14 ± 2 | 18 ± 3 | 80 ± 10 | 4 | 666 ± 29 | 1 | > 64 | >64 | > 64 | 16 | > 64 | > 64 | 81 ± 5 | 909 ± 78 |  | 
2 | CC(C)(C)OC(=O)N[C@@H](Cc1ccccc1)CN(O)C=O [RAS358] | 150 ± 12 | 1430 ± 125 | 3 | 110 ± 10 | 164 ± 40 | 833 ± 30 | 5 | 400 ± 37 | 5 |  |  |  |  |  |  | 454 ± 29 | 2000 ± 150 | 251 ± 15 | 
3 | O=C(Cc1cn(Cc2ccccc2)c2ccc(Br)cc12)NO [SMP195] | 110 ± 10 | 285 ± 18 | 1 | 17 ± 4 | 20 ± 3 | 29 ± 4 | 1 | 833 ± 53 | 1 |  |  |  |  | 4 | 16 | 250 ± 17 | 909 ± 118 | 400 ± 33 | 
4 | CCCC[C@H](CC(=O)NO)c1nc(Cc2ccc(OC(F)(F)F)cc2)no1 [AT013] | 11 ± 1 | 70 ± 5 | 1 | 78 ± 11 | 80 ± 10 | 73 ± 12 | 1 | 303 ± 12 |  | > 64 | 16 | 32 | 4 | > 64 | > 64 | 51 ± 3 |  | 500 ± 15 | MIC Ea289 [6, 11]: 64 µg/mL; MIC ([6]; Klebsiella aerogenes, 18 h, read-out: MIC Ea289): > 128 µg/mL; MIC Ea294 [7, 11]: 16 µg/mL; MIC ([7]; Klebsiella aerogenes, 18 h, read-out: MIC Ea294): > 128 µg/mL; MIC Ea298 [8, 11]: 16 µg/mL; MIC ([8]; Klebsiella aerogenes, 18 h, read-out: MIC Ea298): 128 µg/mL
5 | CCCCC(CC(=O)NO)c1nc(Cc2ccc(F)cc2)no1 (stereo not drawn) [AT002] | 3.5 ± 0.8 | 13 ± 1 |  | 4 ± 1 | 5 ± 2 | 31 ± 7 | 6 | 53 ± 3 | 1 | > 64 | 64 | > 64 | 32 | > 64 | > 64 | 4 ± 0.5 | 58 ± 4 |  | 
